According to patent US20250011307A1, “CRYSTALLINE FORMS OF BIARYL YAP/TAZ-TEAD PROTEIN-PROTEIN INTERACTION INHIBITORS” (Novartis AG, priority 2021, published 2025):
Where a name gives a salt, the structure may show the parent alone.

How the values were obtained:
Assay type in all cases: physicochemical
[1] = Solubility after equilibration at 25° C. for 24 h, with final pH and XRPD of solid residues; settings: Compound B forms
[2] = Hygroscopicity (loss on drying by TGA and XRPD, as is and after storage at 92% / 80% RH); settings: Compound B forms
[3] = Excipient compatibility stress test (HPLC degradation products, color); parameters: key to CL color: A: No change; B: Slight discoloration; C: Medium discoloration; D: Strong discoloration; settings: Compound B forms
[4] = Solid state bulk stability stress test (HPLC degradation products, color, XRPD); parameters: key to CL color: A: No change; B: Slight discoloration; C: Medium discoloration; D: Strong discoloration; settings: Compound B forms
[5] = Xenon light stress test of bulk (HPLC degradation products, color, XRPD); parameters: key to CL color: A: No change; B: Slight discoloration; C: Medium discoloration; D: Strong discoloration; settings: Compound B forms, Xenon light (1200 kLuxh, 25° C.)
Protocol: (§1) X-ray powder diffraction (XRPD) patterns were obtained using a Bruker Advance D8 in reflection geometry. Powders were analyzed using a zero background Si flat sample holder. The radiation used was Cu Kα (A=1.5418 Å). Patterns were measured between 2° and 40° 2theta. • Sample amount: 5-10 mg • Sample holder: zero background Si flat sample holder
as §1, with “radiation” for “radiation used”, “(λ=1.5418” for “(A=1.5418”

[6] = After 1 day at 92% RH, TGA temperature per cell: free form @233° C., succinate @205° C., L-malate @200° C., L-lactate @200° C.
[7] = Hygroscopicity, As is, TGA temperature per cell: free form @233° C., succinate @205° C., L-malate @200° C., L-lactate @200° C.
[8] = 2 weeks 50° C./75% RH, 1% in HGC powder
[9] = 2 weeks 50° C./75% RH, 1% in HPMC powder
[10] = 2 weeks 50° C./closed, 1% in HGC powder
[11] = 2 weeks 50° C./closed, 1% in HPMC powder

Structure (SMILES)	final pH ([1]; Blank FaSSIF)	final pH ([1]; FaSSIF V2 pH 6.5)	final pH ([1]; FeSSIF V2 pH 5.8)	final pH ([1]; SGF pH 2.0)	final pH ([1]; Water)	final pH ([1]; pH 3.0, 50 mM citrate buffer)	final pH ([1]; pH 4.7, 50 mM acetate buffer)	final pH ([1]; pH 6.8, 50 mM phosphate buffer)	Loss on drying by TGA [2, 6] [%@200 °C]	Loss on drying by TGA [2, 7] [%@200 °C]	DP[%] degradation products [3, 8] [%]	DP[%] degradation products [3, 9] [%]	DP[%] degradation products [3, 10] [%]	DP[%] degradation products [3, 11] [%]	DP[%] degradation products, Bulk (HPLC) ([4]; 2 weeks 80° C./11% RH) [%]	DP[%] degradation products, Bulk (HPLC) ([4]; 2 weeks 80° C./75% RH) [%]	DP[%] degradation products, Bulk amber vial (HPLC) ([5]; amber vial) [%]	DP[%] degradation products, Bulk clear quartz vial (HPLC) ([5]; clear quartz vial) [%]	other results
CNC[C@]1(c2ccccc2)Oc2cc(F)c(Cl)c(-c3c(C(N)=O)ccc(OC)c3F)c2[C@@H]1C [Compound B L-malate salt, 2-((2S,3S,4S)-5-Chloro-6-fluoro-3-methyl-2-((methylamino)methyl)-2-phenyl-2,3-dihydrobenzofuran-4-yl)-3-fluoro-4-methoxybenzamide]	[6.04]	[5.95]	[5.74]	[2.17]	[4.34]	[3.04]	[4.62]	[6.59]	0.83	0.81	1.32	2.65	0.24	0.36	0.46	2.84	0.16	1.53	
CNC[C@]1(c2ccccc2)Oc2cc(F)c(Cl)c(-c3c(C(N)=O)ccc(OC)c3F)c2[C@@H]1C [Compound B L-lactate salt, 2-((2S,3S,4S)-5-Chloro-6-fluoro-3-methyl-2-((methylamino)methyl)-2-phenyl-2,3-dihydrobenzofuran-4-yl)-3-fluoro-4-methoxybenzamide]	[6.53]	[6.48]	[5.79]	[2.24]	[7.03]	[3.06]	[4.70]	[6.79]	1.18	0.92	0.44	0.42	0.22	0.33	0.31	2.11	0.17	0.38	final pH ([1]; pH 1.2, 100 mM HCl): [1.12]; final pH ([1]; pH 6.8, 50 mM phosphate buffer with 50 mM Na taurocholate): [6.58]; XRPD ([2]; After 1 day at 80% RH): No change; Loss on drying by TGA ([2]; After 1 day at 80% RH, @200° C.): 1.08%@200 °C; XRPD ([2]; After 1 day at 92% RH): No change; CL color [3, 8]: A; CL color [3, 9]: A; CL color [3, 10]: A; CL color [3, 11]: A; Bulk (XRPD) ([4]; 2 weeks 50° C./75% RH): No change; CL color ([4]; 2 weeks 50° C./75% RH): A; DP[%] degradation products, Bulk (HPLC) ([4]; 2 weeks 50° C./75% RH): 0.33%; Bulk (XRPD) ([4]; 2 weeks 80° C./11% RH): No change; CL color ([4]; 2 weeks 80° C./11% RH): A; Bulk (XRPD) ([4]; 2 weeks 80° C./75% RH): No change; CL color ([4]; 2 weeks 80° C./75% RH): A; Bulk amber vial (XRPD) ([5]; amber vial): No change; CL color ([5]; amber vial): A; Bulk clear quartz vial (XRPD) ([5]; clear quartz vial): No change; CL color ([5]; clear quartz vial): B
